Here are results for 17 compounds from patent publication US20070270475A1, “4-Methoxy-Pyrrolidine-2-Carboxylic Acid Compounds and Derivatives Thereof as Hepatitis C Virus Inhibitors” (priority 2004, published 2007).

By IC50 is commonly meant the concentration that inhibits the measured activity by half.

In this assay the target is T1, HCV RNA Polymerase, recombinant full-length NS5B, genotype 1b (Hepatitis C virus genotype 1b, UniProt Q9WMX2).
T1 construct: Recombinant full-length NS5B; made in house; host or cells: baculovirus (insect cells)
T1 sequence (Q9WMX2 2420-3010): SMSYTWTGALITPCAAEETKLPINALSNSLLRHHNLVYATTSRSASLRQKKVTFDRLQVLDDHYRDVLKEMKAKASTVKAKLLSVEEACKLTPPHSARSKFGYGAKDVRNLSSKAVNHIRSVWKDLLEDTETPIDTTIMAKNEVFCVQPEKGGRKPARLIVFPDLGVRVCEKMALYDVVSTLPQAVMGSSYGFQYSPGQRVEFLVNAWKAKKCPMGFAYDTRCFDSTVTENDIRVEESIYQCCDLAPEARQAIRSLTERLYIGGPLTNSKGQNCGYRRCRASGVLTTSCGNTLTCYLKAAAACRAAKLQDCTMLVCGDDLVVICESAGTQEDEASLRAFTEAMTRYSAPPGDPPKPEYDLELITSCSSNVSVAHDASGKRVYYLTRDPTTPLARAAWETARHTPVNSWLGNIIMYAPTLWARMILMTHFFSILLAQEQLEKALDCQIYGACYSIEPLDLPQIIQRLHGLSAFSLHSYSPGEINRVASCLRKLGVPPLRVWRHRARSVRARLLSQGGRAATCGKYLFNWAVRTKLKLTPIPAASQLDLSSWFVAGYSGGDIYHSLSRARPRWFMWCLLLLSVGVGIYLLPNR
Briefly: In vitro HCV RNA-dependent RNA polymerase inhibition assay, genotype 1b full-length enzyme. It is filed as biochemical, HCV genotype 1b. To be noted: genotype 1b full-length NS5B, 4 nM enzyme. On the procedure: In Vitro Detection of inhibitors of HCV RNA-Dependent RNA Polymerase Activity
Incorporation of [^33P]-GMP into RNA was followed by absorption of the biotin labelled RNA polymer by streptavidin containing SPA beads. A synthetic template consisting of biotinylated 13mer-oligoG hybridised to polyrC was used as a homopolymer substrate.
b) Genotype 1b Full-Length Enzyme
Reaction Conditions were 0.5 μM [^33P]-GTP (20 Ci/mMol), 1 mM Dithiothreitol, 20 mM MgCl2, 5 mM MnCl2, 20 mM Tris-HCl, pH7.5, 1.6 μg/mL polyC/0.256 μM biotinylated oligoG13, 10% glycerol, 0.01% NP-40, 0.2 u/μL RNasin and 50 mM NaCl.
HCV RNA Polymerase (Recombinant full-length NS5B (Lohmann et al, J. Virol. 71 (11), 1997, 8416. ‘Biochemical properties of hepatitis C virus NS5B RNA-dependent RNA polymerase and identification of amino acid sequence motifs essential for enzymatic activity’) expressed in baculovirus and purified to homogeneity) was added to 4 nM final concentration.
5× concentrated assay buffer mix was prepared using 1M MnCl2 (0.25 mL), glycerol (2.5 mL), 10% NP-40 (0.025 mL) and Water (7.225 mL), Total 10 mL.
2× concentrated enzyme buffer contained 1M-Tris-HCl, pH7.5 (0.4 mL), 5M NaCl (0.2 mL), 1M-MgCl2(0.4 mL), glycerol (1 mL), 10% NP-40 (10 μL), 1M DTT (20 μL) and water (7.97 mL), Total 10 mL.
Substrate Mix was prepared using 5x Concentrated assay Buffer mix (4 μL), [^33P]-GTP (10 μCi/μL, 0.02 μL), 25 μM GTP (0.4 μL), 40 μ/μL RNasin (0.1 μL), 20 μg/mL polyrC/biotinylated-oligorG (1.6 μL), and Water (3.94 μL), Total 10 μL.
Enzyme Mix was prepared by adding 1 mg/ml full-length NS5B polymerase (1.5 μL) to 2.81 mL 2×-concentrated enzyme buffer.
The Assay was set up using compound (1μL), Substrate Mix (10 μL), and Enzyme Mix (added last to start reaction) (10 μL), Total 21 μL.
The reaction was performed in a U-bottomed, white, 96-well plate. The reaction was mixed on a plate-shaker, after addition of the Enzyme, and incubated for 1 h at 22° C. After this time, the reaction was stopped by addition of 40 μL 1.875 mg/ml streptavidin SPA beads in 0.1 M EDTA. The beads were incubated with the reaction mixture for 1 h at 22° C. after which 120 μL 0.1 M EDTA in PBS was added. The plate was sealed, mixed centrifuged and incorporated radioactivity determined by counting in a Trilux (Wallac) or Topcount (Packard) Scintillation Counter.
After subtraction of background levels without enzyme, any reduction in the amount of radioactivity incorporated in the presence of a compound, compared to that in the absence, was taken as a measure of the level of inhibition. Ten concentrations of compounds were tested in three- or fivefold dilutions. From the counts, percentage of inhibition at highest concentration tested or IC50s for the compounds were calculated using GraFit 3, GraFit 4 or GraFit 5 (Erithacus Software Ltd.) software packages or a data evaluation macro for Excel based on XLFit software (IDBS).
As to `COC[C@H]1C[C@@](Cc2cscn2)(C(=O)O)N(C(=O)c2ccc(C(C)(C)C)c(OC)c2)[C@H]1c1ncc(C)s1` (single isomer, unassigned; enantiomer a) [Example 2], the IC50 is < 200 nM.
Turning to `COC[C@H]1C[C@@](Cc2cscn2)(C(=O)O)N(C(=O)c2ccc(C(C)(C)C)c(OC)c2)[C@H]1c1ncc(C)s1` (racemic) [Example 1, rel-(2R,4S,5R)-1-(3-Methoxy-4-tert-butylbenzoyl)-4-(methoxymethyl)-5-(5-methyl-1,3-thiazol-2-yl)-2-(1,3-thiazol-4-ylmethyl)pyrrolidine-2-carboxylic acid], the 50% inhibitory concentration (IC50) is < 200 nM.
As for `COC[C@H]1C[C@@](CC(C)C)(C(=O)O)N(C(=O)c2ccc(C(C)(C)C)c(OC)c2)[C@H]1c1ncc(C)s1` (racemic) [Compound C, rel-(2S,4S,5R)-2-isobutyl-1-(3-methoxy-4-tert-butylbenzoyl)-4-methoxymethyl-5-(5-methyl-1,3-thiazol-2-yl)pyrrolidine-2-carboxylic acid, reference compound], the half-maximal inhibitory concentration (IC50) was > 500 nM.
Turning to `COC[C@H]1C[C@@](Cn2cccn2)(C(=O)O)N(C(=O)c2ccc(C(C)(C)C)c(OC)c2)[C@H]1c1ncc(C)s1` (single isomer, unassigned; enantiomer a) [Example 11], the IC50 was < 200 nM.
For `COC[C@H]1C[C@@](Cn2cccn2)(C(=O)O)N(C(=O)c2ccc(C(C)(C)C)c(OC)c2)[C@H]1c1ncc(C)s1` (racemic) [Example 10, rel-(2R,4S,5R)-1-(3-Methoxy-4-tert-butylbenzoyl)-4-(methoxymethyl)-5-(5-methyl-1,3-thiazol-2-yl)-2-(1H-pyrazol-1-ylmethyl)pyrrolidine-2-carboxylic acid], the IC50 was < 200 nM.
Regarding `COC[C@H]1C[C@@](Cc2ccsn2)(C(=O)O)N(C(=O)c2ccc(C(C)(C)C)c(OC)c2)[C@H]1c1ncc(C)s1` (racemic) [Example 9, rel-(2R,4S,5R)-1-(3-Methoxy-4-tert-butylbenzoyl)-4-(methoxymethyl)-5-(5-methyl-1,3-thiazol-2-yl)-2-(1,2-thiazol-3-ylmethyl)pyrrolidine-2-carboxylic acid], the IC50 was < 200 nM.
Consider `COC[C@H]1C[C@@](Cc2nccs2)(C(=O)O)N(C(=O)c2ccc(C(C)(C)C)c(OC)c2)[C@H]1c1ncc(C)s1` (racemic) [Example 8, rel-(2R,4S,5R)-1-(3-Methoxy-4-tert-butylbenzoyl)-4-(methoxymethyl)-5-(5-methyl-1,3-thiazol-2-yl)-2-(1,3-thiazol-2-ylmethyl)pyrrolidine-2-carboxylic acid], for which the half-inhibitory concentration (IC50) is < 200 nM.
Take `COC[C@H]1C[C@@](CC(C)C)(C(=O)O)N(C(=O)c2ccc(C(C)(C)C)c(OC)c2)[C@H]1c1nccs1` (racemic) [Compound A, rel-(2S,4S,5R)-2-isobutyl-1-(3-methoxy-4-tert-butylbenzoyl)-4-methoxymethyl-5-(1,3-thiazol-2-yl)pyrrolidine-2-carboxylic acid, reference compound]: the IC50 is > 500 nM.
On to `COC[C@H]1C[C@@](Cn2cccn2)(C(=O)O)N(C(=O)c2ccc(C(C)(C)C)c(OC)c2)[C@H]1c1nccs1` (single isomer, unassigned) [Example 7], for which the IC50 was < 200 nM.
Regarding `COC[C@H]1C[C@@](Cc2cscn2)(C(=O)O)N(C(=O)c2ccc(C(C)(C)C)c(OC)c2)[C@H]1c1nccs1` (single isomer, unassigned; enantiomer a) [Example 12], the IC50 was < 200 nM.
As for `COCC1CC(CC(C)C)(C(=O)O)N(C(=O)c2ccc(C(C)(C)C)c(OC)c2)C1c1ncc(C)s1` (single isomer, unassigned; enantiomer a) [Compound D, reference compound], the concentration for half-maximal inhibition (IC50) lay in the range of 200 to 500 nM.
As to `COC[C@H]1C[C@@](Cn2cccn2)(C(=O)O)N(C(=O)c2ccc(C(C)(C)C)c(OC)c2)[C@H]1c1nccs1` (racemic) [Example 6, rel-(2R,4S,5R)-1-(3-Methoxy-4-tert-butylbenzoyl)-4-(methoxymethyl)-2-(1H-pyrazol-1-ylmethyl)-5-(1,3-thiazol-2-yl)pyrrolidine-2-carboxylic acid], the IC50 is < 200 nM.
Consider `COC[C@H]1C[C@@](CC(C)C)(C(=O)O)N(C(=O)c2ccc(C(C)(C)C)c(OC)c2)[C@H]1c1nccs1` [Compound B, (2S,4S,5R)-2-isobutyl-1-(3-methoxy-4-tert-butylbenzoyl)-4-methoxymethyl-5-(1,3-thiazol-2-yl)pyrrolidine-2-carboxylic acid, reference compound], for which the IC50 was 200 to 500 nM.
The result for `COC[C@H]1C[C@@](Cc2ccsn2)(C(=O)O)N(C(=O)c2ccc(C(C)(C)C)c(OC)c2)[C@H]1c1nccs1` (single isomer, unassigned; enantiomer a) [Example 5] reads < 200 nM.
In the case of `COC[C@H]1C[C@@](Cc2cscn2)(C(=O)O)N(C(=O)c2ccc(C(C)(C)C)c(OC)c2)[C@H]1c1nccs1` (racemic) [Example 3, rel-(2R,4S,5R)-1-(3-Methoxy-4-tert-butylbenzoyl)-4-(methoxymethyl)-5-(1,3-thiazol-2-yl)-2-(1,3-thiazol-4-ylmethyl)pyrrolidine-2-carboxylic acid], the IC50 was < 200 nM.
As for `COC[C@H]1C[C@@](Cc2ccccc2)(C(=O)O)N(C(=O)c2ccc(C(C)(C)C)c(OC)c2)[C@H]1c1nccs1` (racemic) [Compound E, rel-(2R,4S,5R)-2-benzyl-1-(3-methoxy-4-tert-butylbenzoyl)-4-methoxymethyl-5-(1,3-thiazol-2-yl)-pyrrolidine-2-carboxylic acid, reference compound], the half-inhibitory concentration (IC50) fell in the range of 200 to 500 nM.
In the case of `COC[C@H]1C[C@@](Cc2ccsn2)(C(=O)O)N(C(=O)c2ccc(C(C)(C)C)c(OC)c2)[C@H]1c1nccs1` (racemic) [Example 4, rel-(2R,4S,5R)-1-(3-Methoxy-4-tert-butylbenzoyl)-4-(methoxymethyl)-5-(1,3-thiazol-2-yl)-2-(1,2-thiazol-3-ylmethyl)pyrrolidine-2-carboxylic acid], the IC50 is < 200 nM.
